Data: patent publication US20140017701A1, “CHIMERIC PDK1 KINASES” (priority 2011, published 2014)

Assays:
[1] = tested on: PDK1; experiment: Protein kinase activity assay, PDK1; assay type: biochemical, human; conditions: for Effect on PDK1 activity: PDK1 wt / PDK1 50-359; for Activity (%) PDK1: Table I a, percentage of catalytic activity compared to DMSO, T308tide substrate, 50 μM stated for PS171
Experimental: (§1) For the expression and purification of protein kinases fused to GST, pEBG-2T derived plasmids were transfected into 8×14.5 cm dishes containing HEK293 cells using the PEI method ([…] and […]/14.5 cm dish). The cells were lysed after 48 h in a buffer containing 50 mM Tris-HCl pH 7.5, 1 mM EGTA, 1 mM EDTA, 1% (w/v) Triton X-100, 1 mM sodium orthovanadate, […], 5 mM sodium pyrophosphate, 0.27 M sucrose, 0.1% β-mercaptoethanol, and 1 tablet of protease inhibitor cocktail per 50 ml of buffer. Lysates were frozen in liquid nitrogen and kept at −80° C. until required. Purification involved incubation of the cleared lysate with glutathione sepharose, followed by 2 washes with 0.5 M NaCl in lysis buffer, 8 washes with a buffer containing 50 mM Tris-HCl, 0.1 mM EGTA and 0.1% β-mercaptoethanol (buffer A), and a last wash with buffer A supplemented with 0.26 M sucrose. Elution was performed with this last buffer containing 20 mM glutathione and the GST-fusion protein was cleared from resin by filtration through a “SigmaPrep” spin column (Sigma). GST-fusion proteins were aliquoted, snap frozen in liquid nitrogen and kept at −80° C. until use. Purity at this stage was above 85% as estimated by SDS-PAGE and staining with Coomassie Brilliant Blue R250. PRK2 was expressed from pEBG-2T-PRK2 (Balendran, A. et al. J Biol Chem 275, 20806-13. (2000)), SGK1 from pEBG-2T-SGK1-ΔN[Ser422Asp], PKBα from pEBG-2T-PKBα[Ser473Asp] (Biondi et al., D. R. Embo J 20, 4380-90. (2001)), PKCl from pEBG-2T-PKCl and PKCζ from pEBG-2T-PKCζ. PDK1 and S6K1 were expressed in Sf9 insect cells using a baculovirus expression system from pFastBac-PDK1 and pFastBac-56K1-T2[Thr412Glu].
(§2) The protein kinase activity assays were performed essentially as previously described (Engel, M. et al. Embo J 25, 5469-80 (2006)). The assays were done in a 96-well format and 4 μl aliquots spotted on P81 phospho-cellulose papers (Whatman) using epMotion 5070 (Eppendorf), washed in 0.01% phosphoric acid, dried, and then exposed and analyzed using PhosphoImager technology (FLA-9000 Starion, Fujifilm). Atypical PKC (aPKC) activity assays were performed in a total volume of 20 μl containing 50 mM Tris-HCl pH 7.5, 0.05 mg/ml BSA, 0.1% (v/v) 2-mercaptoethanol, 10 mM MgCl2, 100 μM [γ^32P]ATP (5-50 cpm/pmol), 0.003% Brij, 30-50 ng of aPKC, and MBP (10 μM) or PSRtide (100 μM) as the substrate. After 15 min pre-incubation, the kinase reaction was started by addition of 6 μl of an ATP-Mg mix. When required, lipid activator (LA) phosphatidylserine (100 ng) or PKC lipid activator mix (1×) was included in the pre-incubation. Low basal activity and consistent activation of 1-592 PKCζ and 498 PKCζ by LA was obtained when the pre-incubation time was started by addition of the whole mix on the enzyme.
The substrates were T308tide (200 μM) for PDK1, Kemptide (100 μM) for PKA, and Crosstide (100 μM) for SGK, PKB, S6K, and PRK2. The activity assays for PKCα, β, θ, and δ were performed in the presence of PKC lipid activator mix (1×) using 3 μM of histone H1 as substrate.
The activity assays were performed in duplicates or triplicates (in the case of the temperature stability assay) with less than 10% difference between the duplicate pairs. The activity assays shown were repeated at least twice with similar results. Moreover, most of the assays shown were repeated multiple times with enzymes from independent purifications with similar results. Representative experiments are shown. […]

[2] = target: T1, S6K1-T2-[Thr412Glu] (Homo sapiens, UniProt P23443, T412E); experiment: Protein kinase activity assay, S6K1; assay type: biochemical; conditions: Table I a; percentage of catalytic activity compared to DMSO; Crosstide substrate
T1 construct: His; made in house; host or cells: Sf9 insect cells (baculovirus)
Experimental: For the expression and purification of protein kinases fused to GST, pEBG-2T derived plasmids were transfected into 8×14.5 cm dishes containing HEK293 cells using the PEI method ([…] and […]/14.5 cm dish). The cells were lysed after 48 h in a buffer containing 50 mM Tris-HCl pH 7.5, 1 mM EGTA, 1 mM EDTA, 1% (w/v) Triton X-100, 1 mM sodium orthovanadate, […], 5 mM sodium pyrophosphate, 0.27 M sucrose, 0.1% β-mercaptoethanol, and 1 tablet of protease inhibitor cocktail per 50 ml of buffer. Lysates were frozen in liquid nitrogen and kept at −80° C. until required. Purification involved incubation of the cleared lysate with glutathione sepharose, followed by 2 washes with 0.5 M NaCl in lysis buffer, 8 washes with a buffer containing 50 mM Tris-HCl, 0.1 mM EGTA and 0.1% β-mercaptoethanol (buffer A), and a last wash with buffer A supplemented with 0.26 M sucrose. […]
The protein kinase activity assays were performed essentially as previously described (Engel, M. et al. Embo J 25, 5469-80 (2006)). The assays were done in a 96-well format and 4 μl aliquots spotted on P81 phospho-cellulose papers (Whatman) using epMotion 5070 (Eppendorf), washed in 0.01% phosphoric acid, dried, and then exposed and analyzed using PhosphoImager technology (FLA-9000 Starion, Fujifilm). […]

[3] = tested on: PKA; experiment: Protein kinase activity assay, PKA; assay type: biochemical; conditions: Table I a; percentage of catalytic activity compared to DMSO; Kemptide substrate
Experimental: as §2
(§3) The substrates were T308tide (200 μM) for PDK1, Kemptide (100 μM) for PKA, and Crosstide (100 μM) for SGK, PKB, S6K, and PRK2. The activity assays for PKCα, β, θ, and δ were performed in the presence of PKC lipid activator mix (1×) using 3 μM of histone H1 as substrate. […]

[4] = target: T2, PKCι (Homo sapiens, UniProt P41743); experiment: Protein kinase activity assay, PKCι; assay type: biochemical; conditions: for Effect on PKCι activity: 50 μM; for Activity (%) Atypical PKCs PKCι: Table I b, percentage of catalytic activity compared to DMSO
T2 construct: made in house; host or cells: HEK293
T2 sequence (P41743 10-596 limits assumed): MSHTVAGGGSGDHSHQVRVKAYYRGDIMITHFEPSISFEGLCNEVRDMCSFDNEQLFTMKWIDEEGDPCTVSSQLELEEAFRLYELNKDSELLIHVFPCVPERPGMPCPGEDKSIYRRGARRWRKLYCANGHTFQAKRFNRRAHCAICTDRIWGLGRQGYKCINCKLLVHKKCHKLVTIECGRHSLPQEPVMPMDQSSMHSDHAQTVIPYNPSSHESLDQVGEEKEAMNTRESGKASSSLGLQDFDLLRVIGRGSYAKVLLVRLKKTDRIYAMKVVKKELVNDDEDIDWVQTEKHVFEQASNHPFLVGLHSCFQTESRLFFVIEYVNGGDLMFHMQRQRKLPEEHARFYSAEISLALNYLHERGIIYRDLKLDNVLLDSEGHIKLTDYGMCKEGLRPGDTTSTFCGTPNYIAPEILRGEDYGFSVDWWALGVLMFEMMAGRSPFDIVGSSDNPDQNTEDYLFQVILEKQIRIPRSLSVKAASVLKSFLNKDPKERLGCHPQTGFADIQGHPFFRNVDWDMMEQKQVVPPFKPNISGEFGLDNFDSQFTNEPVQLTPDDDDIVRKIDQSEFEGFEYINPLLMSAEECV
Experimental: as §1
as §2, with “enzyme. […]” for “enzyme.”

[5] = target: T3, PKCα (Homo sapiens, UniProt P17252); experiment: Protein kinase activity assay, PKCα; assay type: biochemical; conditions: Table I b; percentage of catalytic activity compared to DMSO; lipid activator mix, histone H1
T3 construct: purchased Millipore
Experimental: as §2, §3

[6] = target: T4, PKCδ (Homo sapiens, UniProt Q05655); experiment: Protein kinase activity assay, PKCδ; assay type: biochemical; conditions: Table I b; percentage of catalytic activity compared to DMSO; lipid activator mix, histone H1
T4 construct: purchased ProQinase
Experimental: as §2, §3

[7] = target: T5, PKCθ (Homo sapiens, UniProt Q04759); experiment: Protein kinase activity assay, PKCθ; assay type: biochemical; conditions: Table I b; percentage of catalytic activity compared to DMSO; lipid activator mix, histone H1
T5 construct: purchased ProQinase
Experimental: as §2, §3

T5 sequence (Q04759 whole entry): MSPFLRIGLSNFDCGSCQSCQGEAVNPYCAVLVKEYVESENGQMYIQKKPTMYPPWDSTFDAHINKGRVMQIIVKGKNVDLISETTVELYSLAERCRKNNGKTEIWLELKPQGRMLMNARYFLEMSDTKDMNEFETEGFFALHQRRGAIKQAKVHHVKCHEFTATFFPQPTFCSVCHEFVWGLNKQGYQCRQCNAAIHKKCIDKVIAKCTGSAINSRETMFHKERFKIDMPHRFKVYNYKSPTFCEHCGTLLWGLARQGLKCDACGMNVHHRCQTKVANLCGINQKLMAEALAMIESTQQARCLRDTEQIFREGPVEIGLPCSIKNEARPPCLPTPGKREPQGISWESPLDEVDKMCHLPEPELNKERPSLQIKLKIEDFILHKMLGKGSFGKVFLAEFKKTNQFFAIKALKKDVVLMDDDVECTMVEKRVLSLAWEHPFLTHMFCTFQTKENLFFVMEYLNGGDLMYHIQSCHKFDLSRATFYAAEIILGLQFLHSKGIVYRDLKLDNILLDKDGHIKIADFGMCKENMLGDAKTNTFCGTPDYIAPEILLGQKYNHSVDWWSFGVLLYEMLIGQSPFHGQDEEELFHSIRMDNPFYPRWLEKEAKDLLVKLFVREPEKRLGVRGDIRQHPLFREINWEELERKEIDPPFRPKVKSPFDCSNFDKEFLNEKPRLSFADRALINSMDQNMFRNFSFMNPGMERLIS
T1 sequence (P23443 1-421 T412E limits assumed): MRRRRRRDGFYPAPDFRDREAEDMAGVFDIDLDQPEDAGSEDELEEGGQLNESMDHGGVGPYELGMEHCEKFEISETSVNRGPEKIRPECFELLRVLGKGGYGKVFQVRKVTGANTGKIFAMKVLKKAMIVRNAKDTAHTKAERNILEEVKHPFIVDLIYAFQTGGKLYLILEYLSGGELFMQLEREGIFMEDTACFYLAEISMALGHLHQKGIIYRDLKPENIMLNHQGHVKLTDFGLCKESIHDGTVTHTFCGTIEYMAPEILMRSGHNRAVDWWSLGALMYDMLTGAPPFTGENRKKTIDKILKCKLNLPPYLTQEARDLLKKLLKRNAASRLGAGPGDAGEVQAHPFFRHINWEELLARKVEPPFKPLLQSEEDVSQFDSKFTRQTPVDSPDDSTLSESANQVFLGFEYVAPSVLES
T4 sequence (Q05655 whole entry): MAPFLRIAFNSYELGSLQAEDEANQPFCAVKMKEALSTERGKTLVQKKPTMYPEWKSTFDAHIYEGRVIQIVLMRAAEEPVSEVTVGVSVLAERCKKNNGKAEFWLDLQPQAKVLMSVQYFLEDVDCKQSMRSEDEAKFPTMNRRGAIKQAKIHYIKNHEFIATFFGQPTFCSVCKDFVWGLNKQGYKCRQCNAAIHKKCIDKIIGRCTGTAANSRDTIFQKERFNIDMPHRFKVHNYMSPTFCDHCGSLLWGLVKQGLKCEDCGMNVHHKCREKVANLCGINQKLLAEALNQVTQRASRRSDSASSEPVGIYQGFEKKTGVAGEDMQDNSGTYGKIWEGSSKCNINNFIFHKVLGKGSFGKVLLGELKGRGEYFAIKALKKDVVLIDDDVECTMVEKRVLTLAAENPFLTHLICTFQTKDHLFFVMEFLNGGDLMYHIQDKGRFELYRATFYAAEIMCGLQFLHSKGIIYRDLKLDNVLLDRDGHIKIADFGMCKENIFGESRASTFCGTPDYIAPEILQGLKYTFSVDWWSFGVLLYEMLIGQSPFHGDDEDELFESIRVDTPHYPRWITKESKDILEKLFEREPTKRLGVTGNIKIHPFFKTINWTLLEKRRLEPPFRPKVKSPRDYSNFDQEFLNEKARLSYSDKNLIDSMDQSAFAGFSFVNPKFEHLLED

Structure (SMILES)	Effect on PDK1 activity [1]	Activity (%) PDK1 [1]	Activity (%) S6K1 [2]	Activity (%) PKA [3]	Effect on PKCι activity [4]	Activity (%) Atypical PKCs PKCι [4]	Activity (%) Classical PKCs PKCα [5]	Activity (%) Novel PKCs PKCδ [6]	Activity (%) Novel PKCs PKCθ [7]
Cl.O=C(O)CC(Cc1nc2cc(-c3ccccc3)ccc2[nH]1)c1ccc(Cl)cc1 (stereo not drawn) [PS168]	activates	294%	41%	70%	not	108%	154%	148%	130%
Cl.O=C(O)CC(Cc1nc2c(Cl)cc(Cl)cc2[nH]1)c1ccc(Cl)cc1 (stereo not drawn) [PS171]	allosteric activators	246%	47%	91%	not	106%	145%	170%	118%
